pIC50: −log10 of the molar value.
biological target: CDK2/Cyclin E1 (Homo sapiens (Human), UniProt P24941); assay: CDK2/Cyclin E1 HTRF enzyme activity assay; type: biochemical; details: 1 mM ATP; CDK2/Cyclin E1 0.25 nM; 60 minutes at room temperature
Procedure: Example A. CDK2/Cyclin E1 HTRF Enzyme Activity Assay
CDK2/Cyclin E1 enzyme activity assays utilize full-length human CDK2 co-expressed as N-terminal GST-tagged protein with FLAG-Cyclin E1 in a baculovirus expression system (Carna Product Number 04-165). Assays were conducted in white 384-well polystyrene plates in a final reaction volume of 8 μL. CDK2/Cyclin E1 (0.25 nM) was incubated with the compounds of the Examples (40 nL serially diluted in DMSO) in the presence of ATP (50 μM or 1 mM) and 50 nM ULight™-labeled eIF4E-binding protein 1 (THR37/46) peptide (PerkinElmer) in assay buffer (containing 50 mM HEPES pH 7.5, 1 mM EGTA, 10 mM MgCl2, 2 mM DTT, 0.05 mg/mL BSA, and 0.01% Tween 20) for 60 minutes at room temperature. The reactions were stopped by the addition of EDTA and Europium-labeled anti-phospho-4E-BP1 antibody (PerkinElmer), for a final concentration of 15 mM and 1.5 nM, respectively. HTRF signals were read after 1 hour at room temperature on a PHERAstar FS plate reader (BMG Labtech). Data was analyzed with IDBS XLFit and GraphPad Prism 5.0 software using a three or four parameter dose response curve to determine IC50 for each compound.

pIC50 | Compound
≥ 7.70 | CS(=O)(=O)N1CCC(Nc2nc3c(N4CCC(C(F)(F)F)CC4)c(-c4cn[nH]c4)ccn3n2)CC1 [Example 30, N-(1-(methylsulfonyl)piperidin-4-yl)-7-(1H-pyrazol-4-yl)-8-(4-(trifluoromethyl)piperidin-1-yl)-[1,2,4]triazolo[1,5-a]pyridin-2-amine]
≥ 7.70 | C[C@H]1CCCN1c1c(-c2cn[nH]c2)ncc2nc(NC3CCN(S(C)(=O)=O)CC3)nn12 [Example 133, (S)-5-(2-Methylpyrrolidin-1-yl)-N-(1-(methylsulfonyl)piperidin-4-yl)-6-(1H-pyrazol-4-yl)-[1,2,4]triazolo[1,5-a]pyrazin-2-amine]
≥ 7.70 | CC(C)CCOc1c(-c2cn[nH]c2)ncc2nc(NC3CCN(S(C)(=O)=O)CC3)nn12 [Example 121, 5-(Isopentyloxy)-N-(1-(methylsulfonyl)piperidin-4-yl)-6-(1H-pyrazol-4-yl)-[1,2,4]triazolo[1,5-a]pyrazin-2-amine]
≥ 7.70 | C[C@@H]1CN(S(C)(=O)=O)CC[C@@H]1Nc1nc2cnc(-c3cn[nH]c3)c(OCC3(C(F)(F)F)CCC3)n2n1 [Example 114, N-((3R,4S)-3-Methyl-1-(methylsulfonyl)piperidin-4-yl)-6-(1H-pyrazol-4-yl)-5-((1-(trifluoromethyl)cyclobutyl)methoxy)-[1,2,4]triazolo[1,5-a]pyrazin-2-amine]
≥ 7.70 | CS(=O)(=O)N1CCC(Nc2nc3cnc(-c4cn[nH]c4)c(N4CCC(F)(F)C4)n3n2)CC1 [Example 130, 5-(3,3-Difluoropyrrolidin-1-yl)-N-(1-(methylsulfonyl)piperidin-4-yl)-6-(1H-pyrazol-4-yl)-[1,2,4]triazolo[1,5-a]pyrazin-2-amine]
≥ 7.70 | CS(=O)(=O)N1CCC(Nc2nc3c(N4CCCC4)c(-c4cn[nH]c4)ncn3n2)CC1 [Example 52, N-(1-(Methylsulfonyl)piperidin-4-yl)-7-(1H-pyrazol-4-yl)-8-(pyrrolidin-1-yl)-[1,2,4]triazolo[1,5-c]pyrimidin-2-amine]
≥ 7.70 | CCOc1c(-c2cn[nH]c2)ncn2nc(NC3CCN(S(C)(=O)=O)CC3)nc12 [Example 32, 8-Ethoxy-N-(1-(methylsulfonyl)piperidin-4-yl)-7-(1H-pyrazol-4-yl)-[1,2,4]triazolo[1,5-c]pyrimidin-2-amine]
≥ 7.70 | C[C@H]1CCCCN1c1c(-c2cn[nH]c2)ncc2nc(NC3CCN(S(C)(=O)=O)CC3)nn12 [Example 132, (A)-5-(2-Methylpiperidin-1-yl)-N-(1-(methylsulfonyl)piperidin-4-yl)-6-(1H-pyrazol-4-yl)-[1,2,4]triazolo[1,5-a]pyrazin-2-amine]
≥ 7.70 | CCCOc1c(-c2cn[nH]c2)ncc2nc(N[C@H]3CCN(S(C)(=O)=O)C[C@H]3C)nn12 [Example 102, N-((3R,4S)-3-Methyl-1-(methylsulfonyl)piperidin-4-yl)-5-propoxy-6-(1H-pyrazol-4-yl)-[1,2,4]triazolo[1,5-a]pyrazin-2-amine]

Second part, the molecule before the results:

Compound | pIC50
CCOc1c(-c2cn[nH]c2)ccn2nc(N[C@H]3CCN(S(=O)(=O)C4CC4)C[C@H]3C)nc12 [Example 13, N-((3R,4S)-1-(cyclopropylsulfonyl)-3-methylpiperidin-4-yl)-8-ethoxy-7-(1H-pyrazol-4-yl)-[1,2,4]triazolo[1,5-a]pyridin-2-amine] | ≥ 7.70
CC(C)Oc1c(-c2cn[nH]c2)ccn2nc(N[C@H]3CCN(S(C)(=O)=O)C[C@H]3C)nc12 [Example 43, 8-isopropoxy-N-((3R,4S)-3-methyl-1-(methylsulfonyl)piperidin-4-yl)-7-(1H-pyrazol-4-yl)-[1,2,4]triazolo[1,5-a]pyridin-2-amine] | ≥ 7.70
CS(=O)(=O)N1CCC(Nc2nc3cnc(-c4cn[nH]c4)c(N4CCCC(C(F)(F)F)C4)n3n2)CC1 (stereo not shown) [Example 136, N-(1-(Methylsulfonyl)piperidin-4-yl)-6-(1H-pyrazol-4-yl)-5-(3-(trifluoromethyl)piperidin-1-yl)-[1,2,4]triazolo[1,5-a]pyrazin-2-amine] | ≥ 7.70
CS(=O)(=O)N1CCC(Nc2nc3cnc(-c4cn[nH]c4)c(OC4CCC4)n3n2)CC1 [Example 117, 5-Cyclobutoxy-N-(1-(methylsulfonyl)piperidin-4-yl)-6-(1H-pyrazol-4-yl)-[1,2,4]triazolo[1,5-a]pyrazin-2-amine] | ≥ 7.70
C[C@@H]1CN(S(C)(=O)=O)CC[C@@H]1Nc1nc2ccc(-c3cn[nH]c3)c(OC3CC3)n2n1 [Example 74, 5-Cyclopropoxy-N-((3R,4S)-3-methyl-1-(methylsulfonyl)piperidin-4-yl)-6-(1H-pyrazol-4-yl)-[1,2,4]triazolo[1,5-a]pyridin-2-amine] | ≥ 7.70
C[C@@H]1CN(S(C)(=O)=O)CC[C@@H]1Nc1nc2ccc(-c3cn[nH]c3)c(OCC(F)F)n2n1 [Example 72, 5-(2,2-Difluoroethoxy)-N-((3R,4S)-3-methyl-1-(methylsulfonyl)piperidin-4-yl)-6-(1H-pyrazol-4-yl)-[1,2,4]triazolo[1,5-a]pyridin-2-amine] | ≥ 7.70
CC(C)Oc1c(-c2cn[nH]c2)ncn2nc(N[C@H]3CCN(S(=O)(=O)CCCCN4CCOCC4)C[C@H]3C)nc12 [Example 63, 8-Isopropoxy-N-((3R,4S)-3-methyl-1-((4-morpholinobutyl)sulfonyl)piperidin-4-yl)-7-(1H-pyrazol-4-yl)-[1,2,4]triazolo[1,5-c]pyrimidin-2-amine] | ≥ 7.70
CC(C)Sc1c(-c2cn[nH]c2)ncc2nc(NC3CCN(S(C)(=O)=O)CC3)nn12 [Example 124, 5-(Isopropylthio)-N-(1-(methylsulfonyl)piperidin-4-yl)-6-(1H-pyrazol-4-yl)-[1,2,4]triazolo[1,5-a]pyrazin-2-amine] | ≥ 7.70
CS(=O)(=O)N1CCC(Nc2nc3c(OCC(F)F)c(-c4cn[nH]c4)ccn3n2)CC1 [Example 9, 8-(2,2-difluoroethoxy)-N-(1-(methylsulfonyl)piperidin-4-yl)-7-(1H-pyrazol-4-yl)-[1,2,4]triazolo[1,5-a]pyridin-2-amine] | ≥ 7.70
CS(=O)(=O)N1CCC(Nc2nc3cc(-c4cn[nH]c4)ccn3n2)CC1 [Example 1, N-(1-(methylsulfonyl)piperidin-4-yl)-7-(1H-pyrazol-4-yl)-[1.2.4]triazolo[1,5-a]pyridin-2-amine] | ≥ 7.70
CCOc1c(-c2cn[nH]c2)ccn2nc(N[C@H]3CCN(S(=O)(=O)CCCN(C)C)C[C@H]3C)nc12 [Example 28, N-((3R,4S)-1-((3-(dimethylamino)propyl)sulfonyl)-3-methylpiperidin-4-yl)-8-ethoxy-7-(1H-pyrazol-4-yl)-[1,2,4]triazolo[1,5-a]pyridin-2-amine] | ≥ 7.70
CCOc1c(-c2cn[nH]c2)ccn2nc(N[C@H]3CCN(S(=O)(=O)CCCN4CCCC4)C[C@H]3C)nc12 [Example 29, 8-ethoxy-N-((3R,4S)-3-methyl-1-((3-(pyrrolidin-1-yl)propyl)sulfonyl)piperidin-4-yl)-7-(1H-pyrazol-4-yl)-[1,2,4]triazolo[1,5-a]pyridin-2-amine] | ≥ 7.70
CCCCOc1c(-c2cn[nH]c2)ncc2nc(N[C@H]3CCN(S(C)(=O)=O)C[C@H]3C)nn12 [Example 103, 5-Butoxy-N-((3R,4S)-3-methyl-1-(methylsulfonyl)piperidin-4-yl)-6-(1H-pyrazol-4-yl)-[1,2,4]triazolo[1,5-a]pyrazin-2-amine] | ≥ 7.70
CS(=O)(=O)N1CCC(Nc2nc3c(-c4ccccc4)c(-c4cn[nH]c4)ccn3n2)CC1 [Example 22, N-(1-(methylsulfonyl)piperidin-4-yl)-8-phenyl-7-(1H-pyrazol-4-yl)-[1,2,4]triazolo[1,5-a]pyridin-2-amine] | ≥ 7.70
C[C@@H]1CN(S(C)(=O)=O)CC[C@@H]1Nc1nc2cnc(-c3cn[nH]c3)c(OC3CCOC(C(F)(F)F)C3)n2n1 (stereo partly drawn) [Example 113, N-((3R,4S)-3-Methyl-1-(methylsulfonyl)piperidin-4-yl)-6-(1H-pyrazol-4-yl)-5-((2-(trifluoromethyl)tetrahydro-2H-pyran-4-yl)oxy)-[1,2,4]triazolo[1,5-a]pyrazin-2-amine] | ≥ 7.70
C[C@@H]1CN(S(C)(=O)=O)CC[C@@H]1Nc1nc2c(OC3CCOC3)c(-c3cn[nH]c3)ccn2n1 (stereo partly drawn) [Example 40, N-((3R,4S)-3-methyl-1-(methylsulfonyl)piperidin-4-yl)-7-(1H-pyrazol-4-yl)-8-((tetrahydrofuran-3-yl)oxy)-[1,2,4]triazolo[1,5-a]pyridin-2-amine] | ≥ 7.70
COCCOc1c(-c2cn[nH]c2)ccn2nc(NC3CCN(S(C)(=O)=O)CC3)nc12 [Example 6, 8-(2-methoxyethoxy)-N-(1-(methylsulfonyl)piperidin-4-yl)-7-(1H-pyrazol-4-yl)-[1,2,4]triazolo[1,5-a]pyridin-2-amine] | ≥ 7.70
CCOc1c(-c2c[nH]nc2C)ccn2nc(NC3CCN(S(C)(=O)=O)CC3)nc12 [Example 17, 8-ethoxy-7-(3-methyl-1H-pyrazol-4-yl)-N-(1-(methylsulfonyl)piperidin-4-yl)-[1,2,4]triazolo[1,5-a]pyridin-2-amine] | ≥ 7.70
CS(=O)(=O)N1CCC(Nc2nc3c(N4CCCCC4)c(-c4cn[nH]c4)ncn3n2)CC1 [Example 49, N-(1-(Methylsulfonyl)piperidin-4-yl)-8-(piperidin-1-yl)-7-(1H-pyrazol-4-yl)-[1,2,4]triazolo[1,5-c]pyrimidin-2-amine] | ≥ 7.70

— patent US11851426B2, “Bicyclic amines as CDK2 inhibitors” (Incyte Corporation, priority 2019, dated 2023)
